# Test results as given in PubChem BioAssay AID1745844 (Carcinogenic Potency Database (CPDB), 2022).
# Calls of active or inactive are those of the source. How the calls were made is not given here.
# Tested on: rodent lifetime carcinogenesis bioassay, tumor incidence TD50
# Test: chronic cancer bioassays in animals – CPDB, compiled studies (AID 1745844)
structure (smiles),measurement,setting,value
NN,TD50,"hamster, strain Syrian Golden, males, inhaled, site: colon, lesion: adenocarcinoma, dosed 52 weeks, study length 104 weeks",14 mg/kg/day
same,TD50,"hamster, strain Syrian Golden, males, inhaled, site: colon, lesion: leiomyoma, dosed 52 weeks, study length 104 weeks",70.5 mg/kg/day
same,TD50,"hamster, strain Syrian Golden, males, inhaled, site: colon, lesion: papilloma, dosed 52 weeks, study length 104 weeks",70.5 mg/kg/day
same,TD50,"hamster, strain Syrian Golden, males, inhaled, site: nasal cavity, lesion: adenomatous polyp, dosed 52 weeks, study length 104 weeks",4.16 mg/kg/day
same,TD50,"hamster, strain Syrian Golden, males, inhaled, site: stomach, lesion: basal-cell carcinoma, dosed 52 weeks, study length 104 weeks",37.6 mg/kg/day
same,TD50,"hamster, strain Syrian Golden, males, inhaled, site: thyroid gland, lesion: parafollicular-cell adenoma, dosed 52 weeks, study length 104 weeks",17.5 mg/kg/day
same,TD50,"mouse, strain Bor:NMRI, SPF-bred NMRI, females, in drinking water, site: any site (literature study), lesion: benign tumor, dosed 104 weeks, study length 104 weeks",58.5 mg/kg/day (inactive)
same,carcinogen call,"mouse, strain Bor:NMRI, SPF-bred NMRI, females, in drinking water, site: any site (literature study), lesion: malignant tumor, dosed 104 weeks, study length 104 weeks",negative (inactive)
same,carcinogen call,"mouse, strain Bor:NMRI, SPF-bred NMRI, males, in drinking water, site: any site (literature study), lesion: benign tumor, dosed 104 weeks, study length 104 weeks",negative (inactive)
same,carcinogen call,"mouse, strain Bor:NMRI, SPF-bred NMRI, males, in drinking water, site: any site (literature study), lesion: malignant tumor, dosed 104 weeks, study length 104 weeks",negative (inactive)
same,TD50,"mouse, strain C57BL/6, females, inhaled, site: lung, lesion: adenoma, dosed 52 weeks, study length 117 weeks",7.78 mg/kg/day
same,TD50,"mouse, strain Swiss, females, by gavage, site: lung, lesion: one or several types, types not named, dosed 40 weeks, study length 55 weeks",5.67 mg/kg/day
same,TD50,"mouse, strain Swiss, females, in drinking water, site: lung, lesion: adenocarcinoma, dosed 113 weeks, study length 113 weeks",9 mg/kg/day
same,TD50,"mouse, strain Swiss, females, in drinking water, site: lung, lesion: adenoma, dosed 113 weeks, study length 113 weeks",2.81 mg/kg/day
same,TD50,"mouse, strain Swiss, females, in drinking water, site: lung, lesion: several types, types named in the paper, dosed 113 weeks, study length 113 weeks",2.54 mg/kg/day
same,TD50,"mouse, strain Swiss, males, in drinking water, site: all sites, lesion: malignant lymphoma, dosed 113 weeks, study length 113 weeks",9.52 mg/kg/day
same,TD50,"mouse, strain Swiss, males, in drinking water, site: liver, lesion: several types, types named in the paper, dosed 113 weeks, study length 113 weeks",29.8 mg/kg/day
same,TD50,"mouse, strain Swiss, males, in drinking water, site: lung, lesion: adenocarcinoma, dosed 113 weeks, study length 113 weeks",6.19 mg/kg/day
same,TD50,"mouse, strain Swiss, males, in drinking water, site: lung, lesion: adenoma, dosed 113 weeks, study length 113 weeks",2.77 mg/kg/day
same,TD50,"mouse, strain Swiss, males, in drinking water, site: lung, lesion: several types, types named in the paper, dosed 113 weeks, study length 113 weeks",2.2 mg/kg/day
same,TD50,"rat, strain Fischer 344, females, inhaled, site: lung, lesion: bronchiolar adenoma, dosed 52 weeks, study length 130 weeks",26.4 mg/kg/day
same,TD50,"rat, strain Fischer 344, females, inhaled, site: nasal cavity, lesion: adenocarcinoma, dosed 52 weeks, study length 130 weeks",9.2 mg/kg/day
same,TD50,"rat, strain Fischer 344, females, inhaled, site: nasal cavity, lesion: adenomatous polyp, dosed 52 weeks, study length 130 weeks",0.758 mg/kg/day
same,TD50,"rat, strain Fischer 344, females, inhaled, site: nasal cavity, lesion: squamous-cell carcinoma, dosed 52 weeks, study length 130 weeks",13.1 mg/kg/day
same,TD50,"rat, strain Fischer 344, females, inhaled, site: nasal cavity, lesion: squamous-cell papilloma, dosed 52 weeks, study length 130 weeks",8.72 mg/kg/day
same,TD50,"rat, strain Fischer 344, females, inhaled, site: nasal cavity, lesion: villous polyp, dosed 52 weeks, study length 130 weeks",6.56 mg/kg/day
same,TD50,"rat, strain Fischer 344, males, inhaled, site: lung, lesion: bronchiolar adenoma, dosed 52 weeks, study length 130 weeks",6.1 mg/kg/day
same,carcinogen call,"rat, strain Fischer 344, males, inhaled, site: nasal cavity, lesion: adenocarcinoma, dosed 52 weeks, study length 130 weeks",positive
same,TD50,"rat, strain Fischer 344, males, inhaled, site: nasal cavity, lesion: adenomatous polyp, dosed 52 weeks, study length 130 weeks",0.194 mg/kg/day
same,TD50,"rat, strain Fischer 344, males, inhaled, site: nasal cavity, lesion: squamous-cell carcinoma, dosed 52 weeks, study length 130 weeks",6.12 mg/kg/day
same,TD50,"rat, strain Fischer 344, males, inhaled, site: nasal cavity, lesion: squamous-cell papilloma, dosed 52 weeks, study length 130 weeks",6.1 mg/kg/day
same,TD50,"rat, strain Fischer 344, males, inhaled, site: nasal cavity, lesion: villous polyp, dosed 52 weeks, study length 130 weeks",1.36 mg/kg/day
same,TD50,"rat, strain Fischer 344, males, inhaled, site: thyroid gland, lesion: carcinoma, dosed 52 weeks, study length 130 weeks",1.6 mg/kg/day
same,TD50,"rat, strain Wistar, females, in drinking water, site: liver, lesion: hepatocellular carcinoma, dosed 157 weeks, study length 157 weeks",129 mg/kg/day
same,TD50,"rat, strain Wistar, females, in drinking water, site: liver, lesion: several types, types named in the paper, dosed 157 weeks, study length 157 weeks",41.6 mg/kg/day
same,TD50,"rat, strain Wistar, females, in drinking water, site: mammary gland, lesion: malignant tumor, dosed 157 weeks, study length 157 weeks",1.13 mg/kg/day
same,TD50,"rat, strain Wistar, males, in drinking water, site: any site (literature study), lesion: several types, types named in the paper, dosed 157 weeks, study length 157 weeks",9.64 mg/kg/day
same,TD50,"rat, strain Wistar, males, in drinking water, site: liver, lesion: several types, types named in the paper, dosed 157 weeks, study length 157 weeks",43.7 mg/kg/day
CCC1C(=O)OCC1Cc1cncn1C (stereo unspecified),TD50,"rat, strain Sprague-Dawley, females, i.p., site: any site (literature study), lesion: malignant tumor, dosed 104 weeks, study length 104 weeks",98.4 mg/kg/day (inactive)
same,TD50,"rat, strain Sprague-Dawley, males, i.p., site: any site (literature study), lesion: malignant tumor, dosed 104 weeks, study length 104 weeks",1750 mg/kg/day (inactive)
CC(O)CN(N=O)C(=O)NCCCl (stereo unspecified),TD50,"rat, strain Fischer 344, females, by gavage, site: all sites, lesion: mononuclear-cell leukemia, dosed 40 weeks, study length 95 weeks",0.962 mg/kg/day
same,TD50,"rat, strain Fischer 344, females, by gavage, site: liver, lesion: hepatocellular carcinoma, dosed 40 weeks, study length 95 weeks",8.81 mg/kg/day
same,TD50,"rat, strain Fischer 344, females, by gavage, site: liver, lesion: neoplastic nodule, dosed 40 weeks, study length 95 weeks",0.885 mg/kg/day
same,TD50,"rat, strain Fischer 344, females, by gavage, site: liver, lesion: several types, types named in the paper, dosed 40 weeks, study length 95 weeks",0.885 mg/kg/day
same,TD50,"rat, strain Fischer 344, males, by gavage, site: liver, lesion: hepatocellular carcinoma, dosed 35 weeks, study length 120 weeks",2.71 mg/kg/day
same,TD50,"rat, strain Fischer 344, males, by gavage, site: liver, lesion: neoplastic nodule, dosed 35 weeks, study length 120 weeks",1.17 mg/kg/day
same,TD50,"rat, strain Fischer 344, males, by gavage, site: liver, lesion: several types, types named in the paper, dosed 35 weeks, study length 120 weeks",0.861 mg/kg/day
same,TD50,"rat, strain Fischer 344, males, by gavage, site: lung, lesion: alveolar/bronchiolar tumor, dosed 35 weeks, study length 120 weeks",2.39 mg/kg/day
CCOc1ccc(NC(N)=O)cc1,TD50,"rat, strain Osborne-Mendel, both sexes, in feed, site: liver, lesion: several types, types named in the paper, dosed 104 weeks, study length 104 weeks",537 mg/kg/day
Cc1cc(C)c(S(=O)(=O)O)cc1N=Nc1cc(S(=O)(=O)O)c2ccccc2c1O,TD50,"dog, strain Beagle, females, in feed, site: adrenal gland, lesion: medullary adenoma, dosed 365 weeks, study length 365 weeks",316 mg/kg/day
same,TD50,"dog, strain Beagle, females, in feed, site: any site (literature study), lesion: several types, types named in the paper, dosed 365 weeks, study length 365 weeks",670 mg/kg/day
same,TD50,"dog, strain Beagle, females, in feed, site: mammary gland, lesion: adenocarcinoma, dosed 365 weeks, study length 365 weeks",316 mg/kg/day (inactive)
same,carcinogen call,"mouse, strain C3HeB/Jax, both sexes, in feed, site: any site (literature study), lesion: several types, types named in the paper, dosed 104 weeks, study length 104 weeks",negative (inactive)
same,carcinogen call,"mouse, strain C3HeB/Jax, both sexes, in feed, site: liver, lesion: hepatoma, dosed 104 weeks, study length 104 weeks",negative (inactive)
same,TD50,"mouse, strain C57BL/He, both sexes, in feed, site: any site (literature study), lesion: several types, types named in the paper, dosed 104 weeks, study length 104 weeks",20300 mg/kg/day (inactive)
same,TD50,"mouse, strain C57BL/He, both sexes, in feed, site: liver, lesion: hepatoma, dosed 104 weeks, study length 104 weeks",57100 mg/kg/day (inactive)
same,TD50,"rat, strain Non-inbred, both sexes, in feed, site: any site (literature study), lesion: several types, types named in the paper, dosed 143 weeks, study length 143 weeks",12000 mg/kg/day
same,TD50,"rat, strain Non-inbred, both sexes, in feed, site: liver, lesion: hepatoma, dosed 143 weeks, study length 143 weeks",49500 mg/kg/day
same,TD50,"rat, strain Osborne-Mendel, both sexes, in feed, site: all sites, lesion: fibrosarcoma, dosed 104 weeks, study length 104 weeks",20300 mg/kg/day (inactive)
same,carcinogen call,"rat, strain Osborne-Mendel, both sexes, in feed, site: any site (literature study), lesion: several types, types named in the paper, dosed 104 weeks, study length 104 weeks",negative (inactive)
same,TD50,"rat, strain Osborne-Mendel, both sexes, in feed, site: liver, lesion: adenoma, dosed 104 weeks, study length 104 weeks",59800 mg/kg/day (inactive)
same,carcinogen call,"rat, strain Sprague-Dawley, both sexes, in feed, site: any site (literature study), lesion: several types, types named in the paper, dosed 104 weeks, study length 104 weeks",negative (inactive)
same,TD50,"rat, strain Wistar, both sexes, in feed, site: abdomen, lesion: malignant lymphoma, dosed 91 weeks, study length 91 weeks",6130 mg/kg/day
COc1ccc(O)cc1,TD50,"rat, strain F344/DuCrj, females, in feed, site: forestomach, lesion: squamous-cell carcinoma, dosed 104 weeks, study length 104 weeks",3070 mg/kg/day
same,TD50,"rat, strain F344/DuCrj, females, in feed, site: forestomach, lesion: squamous-cell papilloma, dosed 104 weeks, study length 104 weeks",2580 mg/kg/day
same,carcinogen call,"rat, strain F344/DuCrj, males, in feed, site: forestomach, lesion: one or several types, types not named, dosed 51 weeks, study length 52 weeks",negative (inactive)
same,TD50,"rat, strain F344/DuCrj, males, in feed, site: forestomach, lesion: papilloma, dosed 51 weeks, study length 52 weeks",1460 mg/kg/day
same,TD50,"rat, strain F344/DuCrj, males, in feed, site: forestomach, lesion: squamous-cell carcinoma, dosed 104 weeks, study length 104 weeks",377 mg/kg/day
same,TD50,"rat, strain F344/DuCrj, males, in feed, site: forestomach, lesion: squamous-cell papilloma, dosed 104 weeks, study length 104 weeks",832 mg/kg/day
same,TD50,"rat, strain F344/DuCrj, males, in feed, site: stomach, glandular, lesion: adenoma, dosed 104 weeks, study length 104 weeks",16200 mg/kg/day
same,carcinogen call,"rat, strain F344/DuCrj, males, in feed, site: stomach, glandular, lesion: one or several types, types not named, dosed 51 weeks, study length 52 weeks",negative (inactive)
